Patent US7183411B2, “Naphthol, quinoline and isoquinoline-derived urea modulators of vanilloid VR1 receptor” (Janssen Pharmaceutica N.V., priority 2002, dated 2007)
Like-named read-outs stand apart in the source and are kept apart here.

Legend:
[1] = target: recombinant rat VR1 (rVR1/HEK293) (Rattus norvegicus, UniProt O35433); test: Broadly stimulated recombinant rat VR1 functional assay (Ca2+ influx, FLIPR); details: for IC50: recombinant rat VR1, Ca2+ influx
Description: In an effort to identify potent and efficacious antagonists at human and rat VR1 that were active under conditions simulating aspects of in vivo inflammation functional assays were developed using FLIPR to determine antagonist activity against endogenous activators and stimuli likely to be present in inflammation. Cell lines were constructed that stably expressed recombinant rat VR1 (rVR1/HEK293). Cells were exposed to various stimuli at their EC80, with the exception of the low pH and DTT stimuli.
These studies were corroborated and further studies were performed to confirm that the phorbol ester effect was not due to direct effects on the channel. […] Cells were challenged with 300 nM PMA (˜EC80) after 3 min in the indicated antagonist.
Cells were challenged with 5–10 mM DTT to stimulate VR1 after 3 min incubation in compound.
We performed assays similar to those described for the human recombinant receptor with the exception that a lower pH was required in the Ca^2+ influx assay at the rat recombinant receptor.

human VR1 [2] = target: T1, human VR1 (Homo sapiens, UniProt Q8NER1); test: Broadly stimulated recombinant human VR1 functional assay (Ca2+ influx, FLIPR); type: cell-based
T1 construct: expressed in transfected cells; host or cells: HEK293
T1 sequence (Q8NER1 whole entry): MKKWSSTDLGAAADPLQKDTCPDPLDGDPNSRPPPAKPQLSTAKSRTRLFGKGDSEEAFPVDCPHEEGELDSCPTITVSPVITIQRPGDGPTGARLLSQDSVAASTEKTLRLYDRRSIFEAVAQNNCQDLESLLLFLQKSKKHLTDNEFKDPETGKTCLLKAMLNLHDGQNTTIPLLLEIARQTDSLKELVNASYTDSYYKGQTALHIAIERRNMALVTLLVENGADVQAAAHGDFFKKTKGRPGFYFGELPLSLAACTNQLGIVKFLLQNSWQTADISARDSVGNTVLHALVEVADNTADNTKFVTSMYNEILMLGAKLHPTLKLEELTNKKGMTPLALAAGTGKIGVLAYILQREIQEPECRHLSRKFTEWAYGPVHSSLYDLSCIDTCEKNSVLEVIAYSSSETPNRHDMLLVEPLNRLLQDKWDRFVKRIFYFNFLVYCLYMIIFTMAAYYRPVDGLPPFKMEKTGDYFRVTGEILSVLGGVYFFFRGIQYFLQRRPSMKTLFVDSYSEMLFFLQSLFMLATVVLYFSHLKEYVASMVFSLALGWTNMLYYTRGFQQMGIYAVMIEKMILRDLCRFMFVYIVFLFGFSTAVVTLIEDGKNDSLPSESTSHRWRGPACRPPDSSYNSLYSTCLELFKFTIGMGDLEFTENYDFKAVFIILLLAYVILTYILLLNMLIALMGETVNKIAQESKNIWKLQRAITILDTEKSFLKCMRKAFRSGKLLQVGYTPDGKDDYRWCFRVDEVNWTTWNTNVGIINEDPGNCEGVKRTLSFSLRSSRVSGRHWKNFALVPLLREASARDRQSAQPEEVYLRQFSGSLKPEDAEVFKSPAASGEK

human VR1 [3] = target: T1, human VR1; test: Human VR1 functional assay (FLIPR intracellular Ca2+, capsaicin challenge); type: cell-based; details: read-out: In vitro functional assays hIC50 or EC50
Protocol: The functional activity of the test compounds was determined by measuring changes in intracellular calcium concentration using a Ca^++-sensitive fluorescent dye and FLIPR™ technology.
HEK293 Cells expressing human VR1 were grown on poly-D-lysine coated 96 well black-walled plates (BD 354640) and 2 days later loaded with Fluo-3/AM for 1 hour and subsequently tested for agonist-induced increases in intracellular Ca^2+ levels using FLIPR™ technology. […] EC50 or IC50 values were determined from dose-response studies.

[4] = target: T2, human VR1 vanilloid receptors (Homo sapiens, UniProt Q8NER1); test: [3H] RTX binding assay, hVR1 membranes from transfected HEK293 cells; details: for Ki: human VR1, read-out: Receptor binding Ki
T2 construct: expressed in transfected cells; host or cells: HEK293
T2 sequence (Q8NER1 whole entry): as above
Protocol: Compounds of the present invention were tested for their ability to inhibit the binding of [^3H] RTX to hVR1 receptors in a [^3H] RTX binding assay as previously described (Zhang, Sui-Po. Improved ligand binding assays for vanilloid receptors. PCT Int. Appl. (2002), 29 pp. CODEN: PIXXD2 WO 0233411 A1 20020425 AN 2002:315209; Grant, Elfrida R.; Dubin, Adrienne E.; Zhang, Sui-Po; Zivin, Robert A.; Zhong, Zhong Simultaneous intracellular calcium and sodium flux imaging in human vanilloid receptor 1 (VR1)-transfected human embryonic kidney cells: a method to resolve ionic dependence of VR1-mediated cell death. Journal of Pharmacology and Experimental Therapeutics (2002), 300(1), 9–17.)
HEK293 cells were transfected with human VR1 vanilloid receptors and washed with Hank's Balanced Salt Solution, dissociated with cell dissociation buffer (Sigma), and then centrifuged at 1000×g for 5 min. Cell pellets were homogenized in cold 20 mM HEPES buffer, pH 7.4, containing 5.8 mM NaCl, 320 mM sucrose, 2 mM MgCl2, 0.75 CaCl2 and 5 mM KCl and centrifuged at 1000×g for 15 min. The resultant supernate was then centrifuged at 40000×g for 15 min. The pelleted membranes were kept in an −80° C. freezer.
Approximately 120 μg protein/ml from membranes were incubated with indicated concentrations of [^3H] RTX in 0.5 ml of the HEPES buffer (pH 7.4) containing 0.25 mg/mL fatty acid-free bovine serum albumin at 37° C. for 60 min. The reaction mixture was then cooled to 4° C., 0.1 mg α1-acid glycoprotein added to each sample and incubated at 4° C. for 15 min. The samples were centrifuged at 18500×g for 15 min. The tip of the microcentrifuge tube containing the pellet was cut off. Bound radioactivity was quantified by scintillation counting. Non-specific binding was tested in the presence of 200 nM unlabeled RTX.

[5] = system: Carrageenan paw-induced thermal hyperalgesia; test: Carrageenan paw-induced thermal hyperalgesia; type: in vivo; details: rat, po, reversal of carrageenan thermal hyperalgesia; read-out: CgHP ED50
Protocol: Each rat is placed on a heated surface (51° C.) in order to measure the time necessary to elicit a response, and an initial (baseline) response time to a thermal stimuli was recorded for each animal. A response is defined as any shaking, licking, or tucking of the treated paw or jumping. Animals not treated with a test compound respond in approximately 20 seconds. The maximal exposure time permitted is 60 seconds to prevent tissue damage. Rats were injected with an irritant (e.g., 1% carrageenan solution in 0.9% saline) subcutaneously into the sub-plantar tissue of the left hind paw to stimulate an acute inflammatory reaction.
Two hours later, the response time of the animal to the thermal stimulus was evaluated and compared to the animal's baseline response time. This shorter response time was recorded as percent hyperalgesia (% H). A cut-off value for % H (usually 75%) was used during analysis to ensure that the animals were hyperalgesic. Animals were then dosed with test drug or vehicle.
At some time(s) later (typically 45 and 90 minutes), the response time of the animal to the thermal stimulus was again evaluated. For each time point, a percent reversal of hyperalgesia (% R) was calculated using the following formula: % R=(Drug Latency−Carrageenan latency)/(Baseline latency−Carrageenan latency). ED50 values were calculated from % R obtained at several drug doses.

[6] = target: T3, VR1 expressed endogenously on small rat dorsal root ganglion (DRG) neurons (Rattus norvegicus, UniProt O35433); test: Electrophysiologic functional assay using dissociated rat DRG cells; type: cell-based; details: read-out: In vitro functional assays Estimated pA2 (rat) (converted)
T3 construct: VR1 expressed endogenously on small rat dorsal root ganglion (DRG) neurons; endogenous in cells; host or cells: dissociated rat DRG neurons
T3 sequence (O35433 whole entry): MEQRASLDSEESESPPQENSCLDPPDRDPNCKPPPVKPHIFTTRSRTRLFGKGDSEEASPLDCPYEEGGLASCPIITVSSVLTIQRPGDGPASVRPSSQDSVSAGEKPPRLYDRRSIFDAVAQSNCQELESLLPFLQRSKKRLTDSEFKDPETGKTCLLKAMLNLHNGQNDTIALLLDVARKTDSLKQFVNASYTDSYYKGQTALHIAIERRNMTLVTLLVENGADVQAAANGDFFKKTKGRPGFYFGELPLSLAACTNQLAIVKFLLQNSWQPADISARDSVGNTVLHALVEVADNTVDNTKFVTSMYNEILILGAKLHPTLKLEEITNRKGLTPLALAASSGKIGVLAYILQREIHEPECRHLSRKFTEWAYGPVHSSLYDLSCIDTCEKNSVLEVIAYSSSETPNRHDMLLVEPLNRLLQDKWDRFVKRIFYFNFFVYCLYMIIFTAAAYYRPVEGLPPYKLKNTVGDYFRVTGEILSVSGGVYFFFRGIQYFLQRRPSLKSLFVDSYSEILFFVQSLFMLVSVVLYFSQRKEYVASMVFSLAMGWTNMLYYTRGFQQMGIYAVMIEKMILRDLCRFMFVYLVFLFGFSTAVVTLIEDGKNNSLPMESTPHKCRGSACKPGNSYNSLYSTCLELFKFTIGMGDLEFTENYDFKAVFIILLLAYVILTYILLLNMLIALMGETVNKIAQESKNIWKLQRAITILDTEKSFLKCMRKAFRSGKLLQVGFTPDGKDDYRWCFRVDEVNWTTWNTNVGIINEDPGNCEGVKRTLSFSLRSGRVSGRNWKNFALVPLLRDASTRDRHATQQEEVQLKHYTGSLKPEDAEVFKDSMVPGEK
Protocol: Compounds are tested for their activity on VR1 expressed endogenously on small rat dorsal root ganglion (DRG) neurons. DRG neurons from normal rats were dissociated (see methods in Chaplan et al., 2003) and whole cell currents mediated by VR1 were recorded using the whole cell patch clamp technique.

[7] = recombinant human VR1, Ca2+ influx, stimulus 300 nM PMA, read-out: IC50, PKC phosphorylation
[8] = recombinant human VR1, Ca2+ influx, stimulus low pH (pH 6.5), read-out: IC50, Low pH

Chain of recombinant rat VR1 (rVR1/HEK293) (O35433 whole entry): as above

Row | SMILES | IC50 or EC50 (human VR1 [3]) [µM] | Ki [4] [µM] | also measured
1 | Oc1cc2c(cc1O)CN(C(=S)NCCc1ccc(Cl)cc1)CCC2 [Capsazepine, capsazepine] |  |  | IC50 ([1]; IC50, Anandamide, stimulus anandamide 10 μM): 1.3 µM; IC50 ([1]; IC50, Low pH, stimulus low pH (pH 5.9)): 5 µM; IC50 ([1]; IC50, PKC phosphorylation at low pH, PMA at low pH): 10 µM; IC50 ([1]; IC50, PKC phosphorylation, stimulus 300 nM PMA): 10 µM; IC50 (human VR1 [2]; human recombinant receptor, FIG. 1, read-out: potency to inhibit Ca2+ activity induced by the panel of stimuli): 0.1 to 0.3 µM; IC50 (human VR1 [2]; recombinant human VR1, Ca2+ influx, PMA at low pH, read-out: IC50, PKC phosphorylation at low pH): 0.37 µM; IC50 (human VR1 [2]; [7]): 0.16 µM; IC50 (human VR1 [2]; [8]): 0.11 µM
2 | O=C(NCCc1ccc(Cl)c(Cl)c1)Nc1cccc2cnccc12 [Compound 1] | 0.008 | 0.0126 | 
3 | O=C(NCCc1cccc(C(F)(F)F)c1)Nc1cccc2cnccc12 [Compound 2] | 0.019 | 0.0412 | 
4 | O=C(NCCc1ccc(Cl)cc1)Nc1cccc2cnccc12 [Compound 3] | 0.036 | 0.0887 | 
5 | O=C(NCc1ccc(C(F)(F)F)cc1)Nc1cccc2cnccc12 [Compound 4] |  | 0.00687 | ED50 [5]: 0.804 mg/kg
6 | O=C(NCc1ccc(Cl)c(Cl)c1)Nc1cccc2cnccc12 [Compound 5] | 0.004 | 0.00887 | 
7 | O=C(NCc1ccc(Cl)cc1)Nc1cccc2cnccc12 [Compound 6] | 0.0056 | 0.031 | 
8 | O=C(NCc1cccc(C(F)(F)F)c1)Nc1cccc2cnccc12 [Compound 7] | 0.011 | 0.0227 | 
9 | Cc1cc2c(NC(=O)NCc3ccc(Cl)c(Cl)c3)cccc2cn1 [Compound 8] | 0.018 | 0.0129 | 
10 | Cc1cc2c(NC(=O)NCc3cccc(C(F)(F)F)c3)cccc2cn1 [Compound 9] | 0.0094 | 0.039 | 
11 | COc1ccc(C(CNC(=O)Nc2cccc3cnccc23)CC2CCCCC2)cc1 (stereo not shown) [Compound 12] |  | 0.00562 | 
12 | CC(C)(C)c1ccc(CNC(=O)Nc2cccc3ccc(O)cc23)cc1 [Compound 13] | 0.02 | 0.00012 | 
13 | O=C(NCc1ccc(Cl)cc1)Nc1cccc2ccc(O)cc12 [Compound 14] | 0.0049 | 0.00327 | 
14 | O=C(NCc1cccnc1)Nc1cccc2ccc(O)cc12 [Compound 15] | 3.7 |  | inhibition at 1 µM ([4]; human VR1, 1 μM compound, read-out: Receptor binding % Inhibition @ 1 μM): 11%
15 | O=C(NCc1ccc(OC(F)(F)F)cc1)Nc1cccc2ccc(O)cc12 [Compound 16] | 0.027 | 0.00011 | 
16 | O=C(NCc1ccc(C(F)(F)F)cc1)Nc1cccc2ccc(O)cc12 [Compound 17] | 0.004 | 0.0001 | ED50 [5]: 20 mg/kg
17 | O=C(NCc1ccccc1)Nc1cccc2ccc(O)cc12 [Compound 18] | 0.045 | 0.0935 | 
18 | O=C(NCc1cccc(C(F)(F)F)c1)Nc1cccc2ccc(O)cc12 [Compound 19] | 0.026 | 0.00038 | 
19 | COc1ccc(CCNC(=O)Nc2cccc3cnccc23)cc1 [Compound 21] | 0.68 | 1.29 | 
20 | O=C(NCc1ccc(OC(F)(F)F)cc1)Nc1cccc2cnccc12 [Compound 22] | 0.0033 | 0.00128 | 
21 | O=C(NCCc1ccccc1)Nc1cccc2ccc(O)cc12 [Compound 23] |  | 0.0535 | 

Row | SMILES | IC50 or EC50 (human VR1 [3]) [µM] | Ki [4] [µM] | also measured
22 | O=C(Nc1cccc2ccc(O)cc12)N(Cc1ccccc1)Cc1ccccc1 [Compound 25] |  | 3.28 | 
23 | CN(Cc1ccccc1)C(=O)Nc1cccc2ccc(O)cc12 [Compound 26] | 10 | 18.6 | 
24 | O=C(NCCc1ccc(Cl)c(Cl)c1)Nc1cccc2ccc(O)cc12 [Compound 27] | 0.097 | 0.00122 | 
25 | O=C(NCc1ccc(C(F)(F)F)nc1)Nc1cccc2ccc(O)cc12 [Compound 29] | 0.044 | 0.0361 | 
26 | CN(Cc1ccc(Cl)c(Cl)c1)C(=O)Nc1cccc2ccc(O)cc12 [Compound 30] |  | 0.581 | 
27 | O=C(NCc1ccc(Cl)c(Cl)c1)Nc1cccc2ccc(O)cc12 [Compound 31] | 0.015 | 0.00203 | 
28 | O=C(NCc1nc2ccccc2[nH]1)Nc1cccc2ccc(O)cc12 [Compound 32] |  | 2.54 | 
29 | CC(C)(C)c1ccc(CCNC(=O)Nc2cccc3cnccc23)cc1 [Compound 35] | 0.0058 | 0.0013 | 
30 | O=C(NCCc1ccc(C(F)(F)F)cc1)Nc1cccc2cnccc12 [Compound 36] |  | 0.0224 | 
31 | COc1ccc(CNC(=O)Nc2cccc3cnccc23)cc1 [Compound 37] | 0.045 | 0.193 | 
32 | O=C(NCCc1ccc(OC(F)(F)F)cc1)Nc1cccc2cnccc12 [Compound 38] | 0.011 | 0.00603 | 
33 | O=C(NCc1ccc(F)c(F)c1)Nc1cccc2ccc(O)cc12 [Compound 42] |  | 0.00722 | 
34 | O=C(NCc1ccc(Cl)cc1Cl)Nc1cccc2ccc(O)cc12 [Compound 47] |  | 0.00279 | 
35 | O=C(NCc1ccc(C(F)(F)F)cc1)Nc1cccc2c(Cl)nccc12 [Compound 55, 1-(1-Chloro-isoquinolin-5-yl)-3-(4-trifluoromethyl-benzyl)-urea] |  | 0.00735 | Kb [6]: < 0.03 µM
36 | O=C(NCc1cc(C(F)(F)F)cc(C(F)(F)F)c1)Nc1cccc2ccc(O)cc12 [Compound 58] |  | 0.00516 | 
37 | O=C(NCc1ccc(C(F)(F)F)cc1)Nc1cccc2cncc(Cl)c12 [Compound 59] |  | 7.34 | 
38 | CN(CC1CCCCC1)c1ccc(CNC(=O)Nc2cnc3ccccc3c2)cc1 [Compound 65] | 10 | 0.129 | 
39 | OO [Compound H2O2, H2O2] |  |  | EC80 for H2O2-induced Ca2+ flux (human VR1 [2]; VR1/HEK cells, species not stated): 0.015 % H2O2
40 | CCCCCCCCCCCCCC(=O)O[C@@H]1[C@@H](C)[C@@]2(O)[C@@H](C=C(CO)C[C@]3(O)C(=O)C(C)=C[C@@H]23)[C@@H]2C(C)(C)[C@]12OC(C)=O [PMA, phorbol-12-myristate-13-acetate] |  |  | EC50 ([1]; read-out: EC50 (increase in intracellular Ca2+), agonist at rat recombinant VR1): 0.09 µM; EC50 (human VR1 [2]; agonist at human recombinant VR1, read-out: EC50 (increase in intracellular Ca2+)): 0.09 µM
41 | Cl.Cl.Cl.Cl.Cl.Cl.N.N.N.N.N.N.N.N.N.N.N.N.N.N.[O-2].[O-2].[Ru+3].[Ru+3].[Ru+4] [Ruthenium Red, ruthenium red] |  |  | IC50 ([1]; read-out: IC50, Anandamide, stimulus anandamide 10 μM): 1.86 µM; IC50 ([1]; read-out: IC50, PKC phosphorylation, stimulus 300 nM PMA): 0.3 µM; IC50 (human VR1 [2]; [7]): 0.5 µM; IC50 (human VR1 [2]; [8]): 0.5 µM
42 | CCCCC/C=C\C/C=C\C/C=C\C/C=C\CCCC(=O)NCCO [anandamide, Anandamide] |  |  | EC50 [1]: 5 µM; EC50 (human VR1 [2]): 3 µM
